From patent publication US4180672A, “2-Organothio-2-cyclopentenones, organothio-cyclopentanes derived therefrom” (Teijin Limited, priority 1976, dated 1979)
Where two headings read alike, the source gives them in different places.

Assays:
[1] = system: formation of ulcer in rats induced by indomethacin; test: inhibiting action on formation of ulcer in rats induced by indomethacin (peroral); format: in vivo, rats (Sprague Dawley); details: for Ulcer formation (ulcer coefficient) Average value ± S.E.M.: 7 rats
Protocol: By the method of Y. H. Lee et al. [Arch. Int. Pharmacodyn. Ther., 192, 370 (1971)], the inhibiting action of dl-11-deoxy-15-methyl-7-thia-PGE1 methyl ester (a compound of formula II) on the formation of ulcer in rats induced by indomethacin, a typical non-steroid anti-inflammatory agent, was evaluated.
Male rats (Sprague Dawley species; body weight 300 g) were used in the experiment. These rats had been caused to fast for 24 hours in separate cages before the initiation of the experiment. Indomethacin was orally administered to these rats, and 6 hours later, they were killed. Formation of ulcer in the fundus part was examined by measuring the area of the ulcer-forming part under microscope. The dl-11-deoxy-15-methyl-7-thia-PGE1 methyl ester was orally administered at the end of 30 minutes and 3 hours, respectively, after the administration of indomethacin. The ulcer formation inhibiting rate of the dl-11-deoxy-15-methyl-7-thia-PGE1 methyl ester against a predetermined dose of indomethacin was determined.
The indomethacin was administered as a 0.5 ml aqueous suspension (containing two drops of a Tween-type nonionic surfactant per 14 ml of water). The dl-11-deoxy-15-methyl-7-thia-PGE1 methyl ester was given in the form of a solution in a phosphate buffer containing 0.9% of sodium chloride.
In the same way as in Referential Example 1, the compounds shown in Table 2 were examined for their inhibiting action on ulcer formation.

[2] = acute toxicity (iv) in mice; details: mouse, in vivo

Compound	Inhibiting rate (ulcer formation) ([1]; dose 0.4 mg/kg, po)	Inhibiting rate (ulcer formation) ([1]; dose 1.0 mg/kg, po)	Inhibiting rate (ulcer formation) ([1]; dose 2.0 mg/kg, po)	also measured
CCCCCC(C)(O)/C=C/C1CCC(=O)C1SCCCCCC(=O)OC (racemic) [No. 101, dl-11-deoxy-15-methyl-7-thia-PGE1 methyl ester]	66%	99%		ED50 ([1]; Rattus norvegicus, po, peroral, indomethacin 20 mg/kg peroral, rats, read-out: ED50 (inhibition of ulcer formation induced by indomethacin)): 0.3 mg/kg; Inhibiting rate (ulcer formation) ([1]; dose 0.1 mg/kg, po): 16%; Ulcer formation (ulcer coefficient) Average value ± S.E.M. ([1]; dose 0.1 mg/kg, po, indomethacin 20 mg/kg peroral): 57.5 ± 14.1; Ulcer formation (ulcer coefficient) Average value ± S.E.M. ([1]; dose 0.4 mg/kg, po, indomethacin 20 mg/kg peroral, *** p 0.001): 23.3 ± 12.4; Ulcer formation (ulcer coefficient) Average value ± S.E.M. ([1]; dose 1.0 mg/kg, po, indomethacin 20 mg/kg peroral, *** p 0.001): 0.6 ± 0.05; inhibition of ulcer formation (in words) ([1]; rats, indomethacin-induced, peroral): markedly inhibited ulcer formation
CCCCC[C@H](O)/C=C/[C@@H]1CCC(=O)[C@H]1SCCCCCC(=O)OC [No. 89, 11-Deoxy-7-thia-8,12-diepiprostaglandin E1 methyl ester]	57%	65%		LD50 ([2]; iv): 20 mg/kg
CCCCCC(C)(O)CS[C@H]1C(=O)CC[C@@H]1SCCCCCC(=O)O (some centres unmarked) [No. 154, 7,13-dithia-15-hydroxy-15-methyl-11-oxo-prostanoic acid]			80%	LD50 ([2]; acute toxicity (iv) in mice, read-out: LD50): 350 mg/kg
CCCCCCCS[C@H]1C(O)CC[C@@H]1SCCCCCC(=O)OC (some centres unmarked) [No. 159, methyl 7,13-dithia-11-hydroxyprostanoate]	15%		78%	
CCCCCCCS[C@H]1CCC(O)[C@@H]1SCCCCCC(=O)OC (some centres unmarked) [No. 171, methyl 7,13-dithia-9-hydroxyprostanoate]	12%			Inhibiting rate (ulcer formation) ([1]; dose 5.0 mg/kg, po): 75%
CCCCCC(C)(O)CS[C@H]1CCC(O)[C@@H]1SCCCCCC(=O)OC (some centres unmarked) [No. 182, methyl 7,13-dithia-9,15-dihydroxy-15-methylprostanoate]	25%		80%	
COC(=O)CCCCCSC1CCC(O)C1SCCCc1ccccc1 (centres unmarked) [No. 190, methyl 7,13-dithia-11-hydroxy-16-phenyl-17,18,19,20-tetranor-prostanoate]	46%	57%		
CCCCC[C@H](O)/C=C/[C@@H]1[C@@H](C/C=C\CCCC(=O)O)[C@@H](O)C[C@H]1O [PGF2α, reference compound]				LD50 ([2]; iv, female, iv, mice, read-out: acute toxicity LD50): 56 mg/kg; LD50 ([2]; male, iv, mice, read-out: acute toxicity LD50): 60 mg/kg
